Measurements taken from patent publication US5712417A, “Inhibitors of retroviral proteases” (Abbott Laboratories, priority 1989, dated 1998).
Where a name gives a salt, the structure may show the parent alone.

Each compound was assayed against T1, HIV protease (Human immunodeficiency virus type 1 group M subtype B, UniProt P04585) (assay: Inhibition of HIV protease (cleavage of H-Ser-Phe-Asn-Phe-Opr-Gln-Ile-OH, HPLC)). Conditions: not given.
T1 construct: HIV protease consists of 99 amino acids and is evidently split off by itself from the pol polyprotein
Format: biochemical
In short: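 Substrate H-Ser-Phe-Asn-Phe-Opr-Gln-Ile-OH in MGTE buffer (MES, glycerol, Triton X-100, PMSF, pH 6) preincubated with inhibitor at 37 °C for 5-10 min, then reacted with protease at 35 °C for 2 h. RP18 HPLC at 215 nm; tetrapeptide fraction gives cleavage rate, IC50 where rate is halved.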
`CC(C)[C@H](NC(=O)[C@H](Cc1ccccc1)NC(=O)[C@H](O)[C@@H](O)[C@H](O)[C@H](O)CO)C(=O)N[C@@H](Cc1ccccc1)[C@@H](O)[C@H](O)[C@H](Cc1ccccc1)NC(=O)[C@@H](NC(=O)[C@H](Cc1ccccc1)NC(=O)[C@H](O)[C@@H](O)[C@H](O)[C@H](O)CO)C(C)C` [Example 110, N,N'-bis-<D-Gluconyl-L-phenylalanyl-L-valyl>-2S,5S-diamino-1,6-diphenylhexane-3R,4R-diol] showed an IC50 of 1 nM.

Same assay, conditions: inhibitor concentration at which the cleavage rate is halved; pH 6, 2 hours; read-out: IC50
`CC(C)[C@H](NC(=O)[C@@H](N)Cc1ccccc1)C(=O)N[C@@H](CCc1ccncc1)[C@@H](O)[C@H](O)[C@H](CCc1ccncc1)NC(=O)[C@@H](NC(=O)[C@@H](N)Cc1ccccc1)C(C)C` [Example 108, N,N'-bis-(L-Phenylalanyl-L-valyl)-3S,6S-diamino-1,8-di(4-pyridyl)-octane-,5R-diol tetrahydrochloride] showed an IC50 of 280 nM. With `CC(C)[C@H](NC(=O)[C@H](Cc1ccccc1)NC[C@@]1(O)OC[C@@H](O)[C@@H](O)[C@@H]1O)C(=O)N[C@@H](Cc1ccccc1)[C@H](O)[C@@H](O)[C@H](Cc1ccccc1)NC(=O)[C@@H](NC(=O)[C@H](Cc1ccccc1)NC[C@@]1(O)OC[C@@H](O)[C@@H](O)[C@@H]1O)C(C)C` [Example 109, N,N'-bis-<N-(β-D-1-Deoxyfructos-1-yl-L-phenylalanyl-L-valyl>-2S,5S-diamino-1,6-diphenylhexane-3S,4S-diol diacetate] the IC50 was 5 nM. With `CC(C)[C@H](NC(=O)[C@@H](N)Cc1ccccc1)C(=O)NC[C@@H](O)[C@H](O)CNC(=O)[C@@H](NC(=O)[C@@H](N)Cc1ccccc1)C(C)C` [Example 113, N,N,-bis-<L-phenylalanyl-L-valyl>-1,4-diaminobutane-2R,3R-diol dihydrochloride] the IC50 was 40 nM. In the case of `CC(C)[C@H](NC(=O)[C@H](CC1CCCCC1)NC(=O)OC(C)(C)C)C(=O)N[C@@H](Cc1ccccc1)[C@@H](O)[C@H](O)[C@H](Cc1ccccc1)NC(=O)[C@@H](NC(=O)[C@H](CC1CCCCC1)NC(=O)OC(C)(C)C)C(C)C` [Example 115, N,N'-bis-<tert.-Butyloxycarbonyl-L-cyclohexylalanyl-L-valyl>-2S,5S-diamino-1,6-diphenylhexane-3R,4R-diol], the IC50 is reported as 2200 nM. In the case of `CC(C)[C@H](NC(=O)[C@@H](N)CC1CCCCC1)C(=O)N[C@@H](Cc1ccccc1)[C@@H](O)[C@H](O)[C@H](Cc1ccccc1)NC(=O)[C@@H](NC(=O)[C@@H](N)CC1CCCCC1)C(C)C` [Example 116, N,N'-bis-<L-Cyclohexylalanyl-L-valyl>-2S,5S-diamino-1,6-diphenylhexane-3R,4R-diol dihydrochloride], the IC50 is reported as 1.7 nM. In the case of `CC(C)[C@H](NC(=O)[C@H](Cc1c[nH]c2ccccc12)NC(=O)OCc1ccccc1)C(=O)N[C@@H](Cc1ccccc1)[C@@H](O)[C@H](O)[C@H](Cc1ccccc1)NC(=O)[C@@H](NC(=O)[C@H](Cc1c[nH]c2ccccc12)NC(=O)OCc1ccccc1)C(C)C` [Example 117, N,N'-bis-<Benzyloxycarbonyl-L-tryptophyl-L-valyl>-2S,5S-diamino-1,6-diphenylhexane-3R,4R-diol], the IC50 is reported as 19 nM. `CC(C)[C@H](NC(=O)[C@@H]1Cc2ccccc2CN1C(=O)OCc1ccccc1)C(=O)N[C@@H](Cc1ccccc1)[C@@H](O)[C@H](O)[C@H](Cc1ccccc1)NC(=O)[C@@H](NC(=O)[C@@H]1Cc2ccccc2CN1C(=O)OCc1ccccc1)C(C)C` [Example 119, N,N'-bis-<Benzyloxycarbonyl-L-1,2,3,4-tetrahydro-isoquinolin-3-ylcarbonyl-L-valyl>-2S, 5S-diamino-1,6-diphenylhexane-3R, 4R-diol] was tested, and the IC50 was 10000 nM. `CC(C)[C@H](NC(=O)[C@@H]1Cc2ccccc2CN1)C(=O)N[C@@H](Cc1ccccc1)[C@@H](O)[C@H](O)[C@H](Cc1ccccc1)NC(=O)[C@@H](NC(=O)[C@@H]1Cc2ccccc2CN1)C(C)C` [Example 120, N,N'-bis-<L-1,2,3,4-Tetrahydroisoquinolin-3-ylcarbonyl-L-valyl>-2S,5S-diamino-1,6-diphenylhexane-3R,4R-diol diacetate] was tested, and the IC50 was 2 nM. Work on `CC(C)[C@H](NC(=O)C(Cc1ccccc1)C[S+]([O-])Cc1ccccc1)C(=O)N[C@@H](Cc1ccccc1)[C@@H](O)[C@H](O)[C@H](Cc1ccccc1)NC(=O)[C@@H](NC(=O)C(Cc1ccccc1)C[S+]([O-])Cc1ccccc1)C(C)C` (stereo partly drawn) [Example 121, N,N'-bis-<(2-(Benzylsulfinylmethyl)-3-phenylpropionyl)-L-valyl>-2S,5S-diamino-1,6-diphenylhexane-3R,4R-diol] yielded an IC50 of 22 nM. With `CC(C)[C@H](NC(=O)C(Cc1ccccc1)CS(=O)(=O)Cc1ccc(Cl)cc1)C(=O)N[C@@H](Cc1ccccc1)[C@@H](O)[C@H](O)[C@H](Cc1ccccc1)NC(=O)[C@@H](NC(=O)C(Cc1ccccc1)CS(=O)(=O)Cc1ccc(Cl)cc1)C(C)C` (stereo partly drawn) [Example 123, N,N'-bis-<(2-(p-Chlorobenzylsulfonylmethyl)-3-phenyl-propionyl)-L-valyl>-2S,5S-diamino-1,6-diphenylhexane-3R,4R-diol] the IC50 was 32 nM. Work on `Cc1ccc(S(=O)(=O)N[C@@H](Cc2ccc3ccccc3c2)C(=O)N[C@H](C(=O)N[C@@H](Cc2ccccc2)[C@@H](O)[C@H](O)[C@H](Cc2ccccc2)NC(=O)[C@@H](NC(=O)[C@H](Cc2ccc3ccccc3c2)NS(=O)(=O)c2ccc(C)cc2)C(C)C)C(C)C)cc1` [Example 124, N,N'-bis-<N-Tosyl-β-naphthylalanyl-L-valyl>-2S, 5S-diamino-1,6-diphenylhexane-3R, 4R-diol] yielded an IC50 of 11 nM. Compound `CC(C)[C@H](NC(=O)[C@H](Cc1ccc2ccccc2c1)NS(C)(=O)=O)C(=O)N[C@@H](Cc1ccccc1)[C@@H](O)[C@H](O)[C@H](Cc1ccccc1)NC(=O)[C@@H](NC(=O)[C@H](Cc1ccc2ccccc2c1)NS(C)(=O)=O)C(C)C` [Example 125, N,N,-bis-<N-Mesyl-β-naphthylalanyl-L-valyl>-2S,5S-diamino-1,6-diphenylhexane-3R,4R-diol] has an IC50 of 0.75 nM. Work on `CC(C)[C@H](NC(=O)OC(C)(C)C)C(=O)N[C@H](Cc1ccccc1)[C@@H](O)[C@H](O)[C@@H](Cc1ccccc1)NC(=O)[C@@H](NC(=O)OC(C)(C)C)C(C)C` [Example 127, N,N'-bis-<tert.-Butoxycarbonyl-L-valyl>-2R,5R-diamino-1,6-diphenylhexane-3R,4R-diol] yielded an IC50 of 46 nM. `CC(C)[C@H](N)C(=O)N[C@@H](Cc1ccccc1)[C@H](O)[C@@H](O)[C@H](Cc1ccccc1)NC(=O)[C@@H](N)C(C)C` [Example 131, N,N'-bis-<L-Valyl>-2S,5S-diamino-1,6-diphenylhexane-3S,4S-diol dihydrochloride] showed an IC50 of 40000 nM. `N[C@@H](CCCCNC(=O)OCc1ccccc1)C(=O)N[C@@H](Cc1ccccc1)[C@@H](O)[C@H](O)[C@H](Cc1ccccc1)NC(=O)[C@@H](N)CCCCNC(=O)OCc1ccccc1` [Example 132, N,N'-bis-<N^6 -Benzoxycarbonyl-L-lysyl>-2S,5S-diamino-1,6-diphenylhexane-3R,4R-diol dihydrochloride] was tested, and the IC50 was 20000 nM. With `CC(C)[C@H](NC(=O)[C@@H](N)Cc1ccccc1)C(=O)NCCCCNC(=O)[C@@H](NC(=O)[C@@H](N)Cc1ccccc1)C(C)C` [Example 145, N,N'-bis-<L-Phenylalanyl-L-valyl>-1.4-diaminobutane dihydrochloride] the IC50 was 95 nM. In the case of `CC(C)[C@H](NC(=O)[C@H](Cc1cccc2ccccc12)CS(=O)(=O)C(C)(C)C)C(=O)NCCCCNC(=O)[C@@H](NC(=O)[C@H](Cc1cccc2ccccc12)CS(=O)(=O)C(C)(C)C)C(C)C` [Example 146, N,N'-bis-<(2S-(1,1-Dimethylethylsulfonylmethyl)-3-(1-naphthyl)-propionyl)-L-valyl>-1,4-diaminobutane], the IC50 is reported as 100 nM. `CC(C)[C@H](NC(=O)[C@@H](N)Cc1ccccc1)C(=O)N[C@@H](CCc1ccccc1)[C@@H](O)[C@H](O)[C@H](CCc1ccccc1)NC(=O)[C@@H](NC(=O)[C@@H](N)Cc1ccccc1)C(C)C` [Example 148, N,N'-bis-(L-Phenylalanyl-L-valyl)-3S,6S-diamino-1,8-diphenyloctane-4R,5R-diol dihydrochloride] was tested, and the IC50 was 36 nM. `CCCCC[C@H](NC(=O)[C@@H](NC(=O)[C@H](Cc1ccccc1)NC(=O)OC(C)(C)C)C(C)C)[C@@H](O)[C@H](O)[C@H](CCCCC)NC(=O)[C@@H](NC(=O)[C@H](Cc1ccccc1)NC(=O)OC(C)(C)C)C(C)C` [Example 150, N,N'-bis-(tert.-Butoxycarbonyl-L-phenylalanyl-L-valyl)-6S,9S-diaminotetradecane-7R, 8R-diol] was tested, and the IC50 was 95 nM. With `CCCCC[C@H](NC(=O)[C@@H](NC(=O)[C@@H](N)Cc1ccccc1)C(C)C)[C@@H](O)[C@H](O)[C@H](CCCCC)NC(=O)[C@@H](NC(=O)[C@@H](N)Cc1ccccc1)C(C)C` [Example 151, N,N'-bis-(L-Phenylalanyl-L-valyl )-6S, 9S-diamino-tetradecane-7R, 8R-diol dihydrochloride] the IC50 was 4 nM. `CC(C)[C@H](NC(=O)[C@@H](N)Cc1ccccc1)C(=O)N[C@@H](Cc1ccc2c(c1)OCO2)[C@@H](O)[C@H](O)[C@H](Cc1ccc2c(c1)OCO2)NC(=O)[C@@H](NC(=O)[C@@H](N)Cc1ccccc1)C(C)C` [Example 154, N,N'-bis-(L-Phenylalanyl-L-valyl)-2S,5S-diamino-1,6-bis-(3,4-methylenedioxyphenyl)-hexane-3R,4R-diol dihydro-chloride] showed an IC50 of 1 nM. With `CC(C)[C@H](NC(=O)[C@H](Cc1cccc2ccccc12)CS(=O)(=O)C(C)(C)C)C(=O)N[C@@H](Cc1ccc2c(c1)OCO2)[C@@H](O)[C@H](O)[C@H](Cc1ccc2c(c1)OCO2)NC(=O)[C@@H](NC(=O)[C@H](Cc1cccc2ccccc12)CS(=O)(=O)C(C)(C)C)C(C)C` [Example 155] the IC50 was 10 nM.

Same assay, conditions: read-out: IC50
`CC(C)[C@H](NC(=O)[C@@H](N)Cc1c[nH]c2ccccc12)C(=O)N[C@@H](Cc1ccccc1)[C@@H](O)[C@H](O)[C@H](Cc1ccccc1)NC(=O)[C@@H](NC(=O)[C@@H](N)Cc1c[nH]c2ccccc12)C(C)C` [Example 118, N,N'-bis-<L-Tryptophyl-L-valyl>-2S,5S-diamino-1,6-diphenylhexane-3R,4R-dioldihydrochloride] gave an IC50 of 1.2 nM.
